The subject of this test is bovine cardiac myofibrils. As to the kind of experiment: Myofibril assay: PK/LDH-coupled steady-state ATPase activity of skinned bovine cardiac myofibrils. The class given is biochemical. The conditions noted are these: Ca2+ activating to 75% of maximal rate. Summed up: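 Steady-state ATPase of detergent-skinned bovine left-ventricular myofibrils (1 mg/mL), PK/LDH-coupled NADH read at 340 nm, in PIPES/MgCl2 buffer pH 6.8 with 50 μM ATP, 0.6 mM EGTA and CaCl2 set for 50% or 75% activation. Inhibition of activity measured.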

Results on 32 compounds are retold here after patent US11414424B2, “Cardiac sarcomere inhibitors” (Cytokinetics, Inc., priority 2018, dated 2022).

Molecules are shown by their SMILES.

`NC(=O)C12CC(C3C(=O)N(c4ncc(Cl)cc4F)CC(=O)N3Cc3ccc(F)cc3)(C1)C2` (centres unmarked) [Compound 791, 3-(4-(5-chloro-3-fluoro-pyridin-2-yl)-1-(4-fluoro-benzyl)-3,6-dioxopiperazin-2-yl)bicyclo[1.1.1]pentane-1-carboxamide]: the “CDMF75 IC15” value turned out to be 2.7 µM.
As for `CNC(=O)N1CC2(C1)C(=O)N(Cc1ccc(Cl)cc1)CC(=O)N2Cc1ccc(C(F)(F)F)cc1` [Compound 337, 8-(4-chlorobenzyl)-N-methyl-6,9-dioxo-5-(4-(trifluoromethyl)benzyl)-2,5,8-triazaspiro[3.5]-nonane-2-carboxamide], the figure is 1.63 µM.
The result for `CNc1cc(N2CC3(C2)C(=O)N(c2ccc(C#N)cc2F)CC(=O)N3Cc2ccc(C(F)(F)F)cc2)ccc1C(=O)OC` [Compound 541, methyl 4-(8-(4-cyano-2-fluorophenyl)-6,9-dioxo-5-(4-(trifluoromethyl)benzyl)-2,5,8-triazaspiro[3.5]nonan-2-yl)-2-(methylamino)benzoate] reads 0.2 µM; that for `Cc1ccc(N2CCC3(C2)C(=O)N(C(C)C)CC(=O)N3Cc2ccc(Cl)cc2)nc1` (centres unmarked) [Compound 75, 6-(4-chlorobenzyl)-9-isopropyl-2-(5-methylpyridin-2-yl)-2,6,9-triazaspiro[4.5]-decane-7,10-dione], 1.1 µM.
Regarding `Cc1cc(N2CCC3(C2=O)C(=O)N(C(C)C)CC(=O)N3Cc2ccc(Cl)cc2)ccn1` (centres unmarked) [Compound 333, 6-(4-chlorobenzyl)-9-isopropyl-2-(2-methyl-pyridin-4-yl)-2,6,9-triazaspiro[4.5]decane-1,7,10-trione], the “CDMF75 IC15” value was 16.6 µM.
The result for `O=C1[C@H](C2CC2)N(Cc2ccc(F)cc2)C(=O)CN1c1ncc(Cl)cc1F` [Compound 751, (S)-1-(5-chloro-3-fluoro-pyridin-2-yl)-3-cyclo-propyl-4-(4-fluorobenzyl)-piperazine-2,5-dione] reads 1.3 µM.
Consider `Cc1cc(N2CCC3(C2)C(=O)N(C(C)C)CC(=O)N3Cc2ccc(Cl)cc2)ccn1` (centres unmarked) [Compound 129, 6-(4-chlorobenzyl)-9-isopropyl-2-(2-methyl-pyridin-4-yl)-2,6,9-triazaspiro-[4.5]decane-7,10-dione], for which the “CDMF75 IC15” value worked out at 4.6 µM.
The result for `CNC(=O)N1CC2(C1)C(=O)N(c1ccc(C(=O)c3ccccc3)cc1)CC(=O)N2Cc1ccc(C(F)(F)F)cc1` [Compound 172, 8-(4-benzoylphenyl)-N-methyl-6,9-dioxo-5-(4-(trifluoromethyl)benzyl)-2,5,8-triazaspiro[3.5]-nonane-2-carboxamide] reads 18.5 µM.
As for `CC(C)(C)OC(=O)[C@H]1C[C@]2(C1)C(=O)N(c1ccc(C#N)cc1F)CC(=O)N2Cc1ccc(C(F)(F)F)cc1` [Compound 429B], the figure is 0.2 µM; as for `CC(=O)NCC1C(=O)N(c2ncc(Cl)cc2F)CC(=O)N1Cc1ccc(Cl)cc1` (centres unmarked) [Compound 632, N-((4-(5-chloro-3-fluoro-pyridin-2-yl)-1-(4-chloro-benzyl)-3,6-dioxopiperazin-2-yl)methyl)acetamide], 31.7 µM.
In the case of `N#Cc1ccc(N2CC(=O)N(Cc3ccc(C(F)(F)F)cc3)[C@@H](CO)C2=O)c(F)c1` [Compound 287, (S)-3-fluoro-4-(3-(hydroxymethyl)-2,5-dioxo-4-(4-(trifluoromethyl)-benzyl)piperazin-1-yl)-benzonitrile], the “CDMF75 IC15” value was 3.2 µM.
On to `CC1(C(F)F)C(=O)N(c2ncc(Cl)cc2F)CC(=O)N1Cc1ccc(Cl)cc1` (centres unmarked) [Compound 636, 1-(5-chloro-3-fluoropyridin-2-yl)-4-(4-chlorobenzyl)-3-(difluoromethyl)-3-methylpiperazine-2,5-dione], for which the “CDMF75 IC15” value worked out at 1.3 µM.
For `N#Cc1ccc(N2CC(=O)N(Cc3ccc(C(F)(F)F)cc3)C3(CN(CC(F)F)C3)C2=O)cc1F` [Compound 193, 4-(2-(2,2-difluoroethyl)-6,9-dioxo-5-(4-(trifluoromethyl)benzyl)-2,5,8-triazaspiro[3.5]nonan-8-yl)-2-fluorobenzonitrile], the “CDMF75 IC15” value turned out to be 1.7 µM.
The result for `CCc1ccc(CN2C(=O)CN(c3ncc(Cl)cc3F)C(=O)C2C2COC2)cc1` (centres unmarked) [Compound 665, 1-(5-chloro-3-fluoropyridin-2-yl)-4-(4-ethylbenzyl)-3-(oxetan-3-yl)piperazine-2,5-dione] reads 7.3 µM; that for `CC1(CO)C(=O)N(c2ccc(Cl)cc2F)CC(=O)N1Cc1ccc(C(F)(F)F)cc1` (centres unmarked) [Compound 270, 1-(4-chloro-2-fluorophenyl)-3-(hydroxymethyl)-3-methyl-4-(4-(trifluoro-methyl)benzyl)piperazine-2,5-dione], 1.9 µM.
The result for `N#Cc1ccc(N2CCC3(C2)C(=O)N(c2ccc([N+](=O)[O-])cc2)CC(=O)N3Cc2ccc(Cl)cc2)nc1` (centres unmarked) [Compound 348, 6-(6-(4-chlorobenzyl)-9-(4-nitrophenyl)-7,10-dioxo-2,6,9-triazaspiro[4.5]decan-2-yl)nicotinonitrile] reads 0.7 µM.
The result for `CC(C)N1CC(=O)N(Cc2ccc(C(F)(F)F)cc2)C2(CN(C(N)=O)C2)C1=O` [Compound 68, 8-isopropyl-6,9-dioxo-5-(4-(trifluoromethyl)benzyl)-2,5,8-triazaspiro[3.5]-nonane-2-carboxamide] reads 9.2 µM.
For `Cc1ccc(CN2C(=O)CN(c3ncc(Cl)cc3F)C(=O)C2C23CC(O)(C2)C3)cc1` (centres unmarked) [Compound 852, 1-(5-chloro-3-fluoropyridin-2-yl)-3-(3-hydroxybicyclo-[1.1.1]pentan-1-yl)-4-(4-methylbenzyl)piperazine-2,5-dione], the “CDMF75 IC15” value was found to be 6.5 µM.
The result for `O=C1CN(c2ncc(Cl)cc2F)C(=O)C2(CCOC2)N1Cc1ccc(C(F)(F)F)cc1` (centres unmarked) [Compound 553, 9-(5-chloro-3-fluoropyridin-2-yl)-6-(4-(trifluoromethyl)-benzyl)-2-oxa-6,9-diazaspiro[4.5]decane-7,10-dione] reads 1.4 µM; that for `N#Cc1ccc(N2CC(=O)N(Cc3ccc(C(F)(F)F)cc3)C3(CN(C(N)=O)C3)C2=O)c(F)c1` [Compound 204, 8-(4-cyano-2-fluorophenyl)-6,9-dioxo-5-(4-(trifluoromethyl)benzyl)-2,5,8-triazaspiro[3.5]nonane-2-carboxamide], 0.2 µM.
Take `CNC(=O)N[C@H]1C[C@]2(C1)C(=O)N(c1ccc(C#N)cc1F)CC(=O)N2Cc1ccc(C(F)(F)F)cc1` [Compound 463B]: the “CDMF75 IC15” value came to 0.4 µM.
The result for `Cc1nc([C@H]2C[C@]3(C2)C(=O)N(C(C)C)CC(=O)N3Cc2ccc(C(F)(F)F)cc2)oc1C` (single isomer, unassigned) [Compound 500B] reads 35.5 µM; that for `CC(C)N1CC(=O)N(Cc2ccc(Cl)cc2)C2(CN(c3ccnc(C#N)c3)C2)C1=O` [Compound 27, 4-(5-(4-chlorobenzyl)-8-isopropyl-6,9-dioxo-2,5,8-triazaspiro[3.5]nonan-2-yl)picolinonitrile], 8.6 µM.
On to `O=C1C(C2CC(O)C2)N(Cc2ccc(F)cc2)C(=O)CN1c1ccc(Cl)cc1F` (single isomer, unassigned) [Compound 866D, 1-(4-chloro-2-fluorophenyl)-4-(4-fluorobenzyl)-3-(3-hydroxycyclobutyl)piperazine-2,5-dione], for which the “CDMF75 IC15” value was greater than 39 µM.
The result for `NC(=O)[C@H]1C[C@]2(C1)C(=O)N(c1ncc(Cl)cc1F)CC(=O)N2Cc1ccc(C(F)F)cc1` (single isomer, unassigned) [Compound 875A, 8-(5-chloro-3-fluoropyridin-2-yl)-5-(4-(difluoromethyl)benzyl)-6,9-dioxo-5,8-diazaspiro[3.5]nonane-2-carboxamide] reads 2.2 µM.
Take `N#Cc1ccc(N2CC(=O)N(Cc3ccc(Cl)cc3)[C@]3(C[C@@H](C(N)=O)C3)C2=O)c(F)c1` [Compound 266, (2s,4s)-5-(4-chlorobenzyl)-8-(4-cyano-2-fluorophenyl)-6,9-dioxo-5,8-diazaspiro-[3.5]nonane-2-carboxamide]: the “CDMF75 IC15” value was 0.7 µM.
As for `Cc1noc([C@H]2C[C@]3(C2)C(=O)N(c2ccc(C#N)cc2F)CC(=O)N3Cc2ccc(C(F)(F)F)cc2)n1` [Compound 432B], the figure is 0.5 µM; as for `Cc1ccc(CN2C(=O)CN(c3ncc(Cl)cc3C)C(=O)C2C2COC2)cc1F` (centres unmarked) [Compound 724, 1-(5-chloro-3-methyl-pyridin-2-yl)-4-(3-fluoro-4-methylbenzyl)-3-(oxetan-3-yl)piperazine-2,5-dione], 13.8 µM.
The result for `CNC(=O)c1ccccc1N1CC2(C1)C(=O)N(c1ccc(C#N)cc1F)CC(=O)N2Cc1ccc(C(F)(F)F)cc1` [Compound 537, 2-(8-(4-cyano-2-fluorophenyl)-6,9-dioxo-5-(4-(trifluoromethyl)benzyl)-2,5,8-triazaspiro[3.5]nonan-2-yl)-N-methylbenzamide] reads 0.3 µM; that for `CNC(=O)N1CC2(C1)C(=O)N(c1ccc(OC(F)F)cc1)CC(=O)N2Cc1ccc(C(F)(F)F)cc1` [Compound 159, 8-(4-(difluoromethoxy)-phenyl)-N-methyl-6,9-dioxo-5-(4-(trifluoro-methyl)benzyl)-2,5,8-triazaspiro[3.5]nonane-2-carboxamide], 3.2 µM.
As for `COC(=O)N1CC2(C1)C(=O)N(c1ccc(C#N)cc1)CC(=O)N2Cc1ccc(C(F)(F)F)cc1` [Compound 188, methyl 8-(4-cyanophenyl)-6,9-dioxo-5-(4-(trifluoromethyl)benzyl)-2,5,8-triazaspiro[3.5]-nonane-2-carboxylate], the figure is 2.6 µM; as for `CNC(=O)N1CC2(C1)C(=O)N(Cc1ccc(C(F)(F)F)cc1)CC(=O)N2Cc1ccc(C(F)(F)F)cc1` [Compound 335, N-methyl-6,9-dioxo-5,8-bis(4-(trifluoromethyl)benzyl)-2,5,8-triazaspiro[3.5]nonane-2-carboxamide], 12.2 µM.
